The values below are quoted from earlier work in patent publication US10385405B2, “Gene expression markers of tumor resistance to HER2 inhibitor treatment” (GENENTECH, INC., priority 2007, dated 2019).

The subject of series [1] is trastuzumab-resistant models harboring PTEN loss or PIK3CA activating mutations.
Series [2] relates to incurable, locally advanced, recurrent or metastatic solid tumors.

In the case of `CS(=O)(=O)N1CCN(Cc2cc3nc(-c4cccc5[nH]ncc45)nc(N4CCOCC4)c3s2)CC1` [GDC-0941], the “sensitivity of trastuzumab-resistant models” value in series [1] is on record as “sensitive”.
As to “Pertuzumab: HER dimerization inhibitor antibody that inhibits HER2 forming heterodimers with other HER receptors”, in series [2] (given intravenously every 3 weeks), the tolerability result was “generally well tolerated”. In addition, the confirmed partial responses result in series [2] (in vivo) was “Two”. For the same molecule, the tumor regression in series [2] (patients evaluable for response) is 3 of 20. For the same molecule, for the setting “doses of 2.0-15 mg/kg”, the “pharmacokinetics, linearity” value was “linear”. For the same molecule, the antibodies to pertuzumab result (in vivo) is given as “not detected”.
